Experimental data as given in patent publication US12054747B2, “Method of differentiating primordial germ cell into primordial follicle in vitro” (KYUSHU UNIVERSITY, NATIONAL UNIVERSITY CORPORATION, priority 2018, dated 2024).

How the values were obtained:
[1] = tested on: transcription factor Foxo3a localization in oocytes; experiment: In vitro culture of gonad in presence of PI3K inhibitor with or without pressurization; Foxo3a immunostaining; type: cell-based, mouse; conditions: 25 μM Ly, oocytes of 20 μm or smaller, 16th day; for proportion of oocytes in which Foxo3a was localized in the nucleus: FIG. 8A; for proportion of oocytes in which Foxo3a was localized in the cytosol: FIG. 8B
Protocol: Specifically, first, a Transwell-COL membrane (3.0 μm pore size, 24 mm diameter) (manufactured by Corning Inc.) was set in each well of a 6-well plate, and the gonad collected in (1) were placed on a membrane. Then, 1.3 mL of medium was added to each well and culture was performed for 16 days. For artificial pressurization, AGP-3001S (registered trademark) manufactured by STREX was used to apply a hydrostatic pressure of 33.33 kPa, during the period from the 6th day to the 16th day from the start of the culture. In addition, Ly was added to the medium such that a final concentration is 25 μM, during the period from the 6th day to the 16th day from the start of the culture. Also, the medium was cultured in αM2 for 4 days and then cultured in S10. In addition, ICI 182,780 (7α,17β-[9-[(4,4,5,5,5-pentafluoropentyl)sulfinyl]nonyl]estra-1,3,5(10)-triene-3,17-diol) (manufactured by Tocris Bioscience) which is an estrogen receptor antagonist was added during the period from 5th to 9th day after the start of culture such that a final concentration in the medium is 500 nM. About half of the medium was replaced with anew medium every other day. As a control, those cultured in the same manner in the presence of Ly without pressurization were also prepared. In the gonad cultured in (2), a tissue section of the gonad was prepared by using the same method as in (1) of Reference Example 1. Then, the tissue section of the gonad obtained in (3) was immunohistochemically stained using the same method as in (4) of Example 1. […] In FIG. 7, “No Press (0 kPa)” is a gonad cultured in the presence of Ly without pressurization. “Press (33.3 kPa)” is a gonad cultured under the artificially pressurized condition and in the presence of Ly. a and e are staining images for CFP expressed under the control of the expression of the germ cell marker Stella. b and f are immunostaining images using an antibody against a transcription factor Foxo3α. c and g are immunostaining images using an antibody against the MVH of the germ cell marker. d is an image in which a nuclear-staining image using DAPI is superimposed on the staining images in a to c. h is an image in which a nuclear-staining image using DAPI is superimposed on the staining images in e to g. A scale bar represents 10 μm. Further, FIG. 8A is a graph obtained by calculating a proportion of oocytes in which the transcription factor Foxo3a is localized in the nucleus, from the immunostaining image using the antibody against the transcription factor Foxo3a in FIG. 7. FIG. 8B is a graph obtained by calculating a proportion of oocytes in which the transcription factor Foxo3a is localized in a cytosol, from the immunostaining image using the antibody against the transcription factor Foxo3a in FIG. 7.

[2] = tested on: oocytes in gonad of a 12.5 day-old fetus after fertilization; experiment: In vitro culture of gonad in presence of PI3K inhibitor; oocyte size counted by Stella-CFP fluorescence; type: cell-based, mouse; conditions: 25 μM Ly from 6th to 16th day of culture; observed on 16th day; FIG. 6B
Protocol: First, a Transwell-COL membrane (3.0 μm pore size, 24 mm diameter) (manufactured by Corning Inc.) was set in each well of a 6-well plate, and the gonad collected in (1) were placed on a membrane. Then, 1.3 mL of medium was added to each well and culture was performed for 16 days. Also, the medium was cultured in αM2 for 4 days and then cultured in S10. In addition, the PI3K inhibitor LY294002 (hereinafter, may be abbreviated as “Ly”) (manufactured by Cell Signaling Technology, model number: 9901) was added to the medium such that a final concentration is 25 μM, during the period from the 6th day to the 16th day from the start of the culture. In addition, ICI 182,780 (7α,17β-[9-[(4,4,5,5,5-pentafluoropentyl)sulfinyl]nonyl]estra-1,3,5(10)-triene-3,17-diol) (manufactured by Tocris Bioscience) which is an estrogen receptor antagonist was added during the period from 5th to 9th day after the start of culture such that a final concentration in the medium is 500 nM. About half of the medium was replaced with a new medium every other day. In addition, as a control, those cultured in the same manner without adding Ly (cultured under a steady condition) were also prepared. The gonad on the 16th day from the start of culture were observed under a fluorescent stereomicroscope (manufactured by Olympus Corporation, model number: SZX16). In FIG. 6A, “Control” is a gonad cultured under a steady condition (in the absence of Ly), and “Ly” is a gonad cultured in the presence of the PI3K inhibitor LY294002. A scale bar represents 50 μm. Further, FIG. 6B is a graph in which the number of oocytes was counted using the expression of Stella-CFP as an index in FIG. 6A, and proportions of the oocytes smaller than 20 μm, 20 μm or larger and 50 μm or smaller, and larger than 50 μm were calculated.

[3] = artificially pressurized condition (33.33 kPa)

O=c1cc(N2CCOCC2)oc2c(-c3ccccc3)cccc12 [Ly, LY294002] was tested, and the “proportion of oocytes in which Foxo3a was localized in the nucleus” value [1, 3] was “about 82%”, the “proportion of oocytes in which Foxo3a was localized in the cytosol” value [1, 3] was “about 18%” and the “proportion of oocytes in which Foxo3a was localized in the nucleus” value ([1]; without pressurization (0 kPa)) was “about 52%”. The “proportion of oocytes in which Foxo3a was localized in the cytosol” value ([1]; without pressurization (0 kPa)) was “about 48%”, the “proportion of oocytes having a size larger than 50 μm” value [2] was “about 23%” and the “proportion of oocytes having a size smaller than 20 μm in total oocytes” value [2] was “about 29%”. For the same compound, the “proportion of oocytes with a size of 20 μm or larger and 50 μm or smaller” value [2] was “about 48%”.
